Assay results from US11628159B2, “Cell-protective compounds and their use” (ETH ZURICH, priority 2017, dated 2023).
“Also recorded” adds a separate entry of the source. Read-outs that look alike come from different tables or passages of the source. Values belong to the molecule of their own block, whether it stands above or below them.

Experiments:
[1] = target: T1, GRK2 (Homo sapiens, UniProt P25098); test: In vitro phosphorylation assay: GRK2-mediated phosphorylation of SRSF1 with purified proteins; format: biochemical; details: for IC50: purified proteins
T1 construct: fused on or other part: hexahistidine tag
T1 sequence (P25098 1-669 limits assumed): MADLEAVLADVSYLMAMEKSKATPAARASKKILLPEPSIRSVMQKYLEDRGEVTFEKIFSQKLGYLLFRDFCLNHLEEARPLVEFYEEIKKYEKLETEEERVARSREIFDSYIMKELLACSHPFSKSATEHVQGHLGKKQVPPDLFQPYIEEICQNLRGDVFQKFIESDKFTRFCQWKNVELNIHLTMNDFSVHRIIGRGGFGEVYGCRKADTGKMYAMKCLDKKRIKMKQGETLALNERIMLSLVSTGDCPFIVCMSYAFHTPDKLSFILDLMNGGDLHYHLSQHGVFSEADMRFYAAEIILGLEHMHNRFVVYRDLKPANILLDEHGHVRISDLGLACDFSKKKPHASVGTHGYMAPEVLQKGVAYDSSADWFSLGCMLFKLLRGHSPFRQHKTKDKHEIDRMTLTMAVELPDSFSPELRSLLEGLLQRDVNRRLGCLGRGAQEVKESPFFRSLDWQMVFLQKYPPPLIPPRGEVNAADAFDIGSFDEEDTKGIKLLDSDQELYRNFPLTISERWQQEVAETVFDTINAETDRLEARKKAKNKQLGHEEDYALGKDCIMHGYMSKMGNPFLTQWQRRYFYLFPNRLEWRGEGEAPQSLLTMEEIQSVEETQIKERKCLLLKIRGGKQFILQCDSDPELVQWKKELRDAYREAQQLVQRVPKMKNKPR
Experimental: The GRK2-mediated phosphorylation of SRSF1 was determined with purified proteins in the presence of increasing concentrations of paroxetine or different small molecule compounds. SRSF1 phosphorylation is presented as % of control, which is the SRSF1 phosphorylation in the absence of inhibitor.
Recombinant human GRK2 protein and GRK2-S670A protein was expressed in and purified from Spodoptera frugiperda (Sf9) cells by the baculoviral expression system. […] Sf9 cells were infected with recombinant baculoviruses at an MOI of 2-3, 48 h after infection cells were harvested by centrifugation, lysed with lysis buffer (300 mM NaCl, 50 mM HEPES, pH 7.5 supplemented with 1% NP40, 1 mM PMSF and protease inhibitor cocktail) and applied to Ni-NTA chromatography. After overnight incubation at 4° C., unbound proteins were removed by washing with lysis buffer (20× column volumes) followed by 1× column volume of 30 mM imidazole-containing lysis buffer. Bound GRK2 was eluted by 300 mM imidazole in lysis buffer, desalted by PD10 column chromatograpy, supplemented with 20% glycerol and stored at −80° C. for further use.
Protein-expressing bacteria were collected by centrifugation, frozen in liquid nitrogen and thawed on ice in lysis buffer (8 M urea, 300 mM NaCl, 50 mM HEPES, 10 mM imidazole, pH 7.5), which was supplemented with 2-mercaptoethanol (0.7 ml/L) freshly before use (10 ml of lysis buffer for a bacterial pellet from 200 ml of culture medium). The bacterial lysate was incubated for 1 h at room temperature, sonicated and centrifuged for 15 min at 4000×g at 4° C. The supernatant was applied to the Ni-NTA column matrix prewashed with 20 ml of lysis buffer. […] Finally, proteins were eluted with elution buffer (300 mM NaCl, 50 mM HEPES, 500 mM imidazole, pH 7.5, supplemented freshly with 0.7 ml/L 2-mercaptoethanol). Buffer of eluted proteins was exchanged to 150 mM NaCl, 50 mM HEPES (pH 7.5) by PD10 column chromatography.
Recombinant proteins were used for an in vitro phosphorylation assay with GRK2 and GRK2-S670A. […] After an incubation for 30 min at 30° C., the reaction was stopped by the addition of 5×SDS-Laemmli buffer. Proteins were separated by SDS-PAGE and subjected to autoradiography. […] After an incubation for 30-60 min at 30° C., the phosphorylation was stopped by the addition of 5 volumes of ice-cold reaction buffer. The reaction mixtures were immediately applied to glass fiber filters (GF/C, WHATMAN™, GE Healthcare Life Sciences, Glattbrugg, Switzerland). After three washing steps with 5 ml of reaction buffer, filter-bound radioactivity was determined in a β-counter.

[2] = tested on: GRK2-mediated phosphorylation of Srsf1; test: Cardiac Srsf1 phosphorylation under basal conditions in non-transgenic B6 mice after short-term treatment; format: in vivo, mouse; details: 10 mg/kg i.p., 5 h, immunoblot, relative to vehicle
Experimental: A, The GRK2-mediated phosphorylation of Srsf1 was determined by immunoblot in cardiac lysates prepared from hearts of non-transgenic B6 mice after treatment (i.p.) for 5 h with 10 mg/kg of 1-(1,3-benzodioxol-5-yl)-4-(cyclopropane-carbonyl)-3-hydroxy-2-phenyl-2H-pyrrol-5-one (“Compound-1”), 4-(1,3-benzodioxol-5-yl)pyrimidine (“Compound-4”), 1-(1,3-benzodioxol-5-ylmethyl)-5-(4-fluorophenyl)-2-methyl-pyrrole-3-carboxamide (“Compound-2”), or (4R)-N3-(1,3-benzodioxol-5-ylmethyl)-N4-[[3-(trifluoromethyl)phenyl]-methyl]pyrrolidine-3,4-dicarboxamide (“Compound-5”) relative to vehicle-treated B6 controls (“con”). […] B, Left panel: The AAC-induced cardiac p-Srsf1 content was determined in cardiac lysates from B6 mice with AAC after treatment for 7 days with 5 mg/kg/d of 1-(1,3-benzodioxol-5-yl)-4-(cyclopropane-carbonyl)-3-hydroxy-2-phenyl-2H-pyrrol-5-one (“Compound-1”) or (4R)-N3-(1,3-benzodioxol-5-ylmethyl)-N4-[[3-(trifluoromethyl)phenyl]-methyl]pyrrolidine-3,4-dicarboxamide (“Compound-5”) relative to vehicle-treated B6 controls with AAC (“AAC-con”). […] Right and lower panels: Cardiac function parameters were determined by echocardiography in B6 mice with AAC after treatment for 7 days with “Compound-1” or “Compound-5” relative to vehicle-treated B6 controls with AAC ((±s.d.; n=5 (A) and n=3 (B); Dunnett's Multiple Comparison Test vs. con (A) or AAC-con (B)).

[3] = read-out: IC50 value, inhibition of GRK2-mediated SRSF1 phosphorylation

IC50 value lower than that of paroxetine ([1]; GRK2-mediated SRSF1 phosphorylation): more than 5 fold
IC50 ([1]; n=4, read-out: IC50 value, inhibition of GRK2-mediated phosphorylation of SRSF1): 450 nM
IC50 [1, 3]: 450 nM
Molecule: O=C(C1=C(O)C(c2ccccc2)N(c2ccc3c(c2)OCO3)C1=O)C1CC1 (stereo not shown) [Compound-1, 1-(1,3-benzodioxol-5-yl)-4-(cyclopropane-carbonyl)-3-hydroxy-2-phenyl-2H-pyrrol-5-one]
GRK2-mediated Srsf1 phosphorylation under basal conditions in the hearts of non-transgenic B6 mice [2]: decreased

IC50 [1, 3]: 1870 nM
Molecule: c1cc(-c2ccc3c(c2)OCO3)ncn1 [Compound-4, 4-(1,3-benzodioxol-5-yl)pyrimidine]
GRK2-mediated Srsf1 phosphorylation under basal conditions in the hearts of non-transgenic B6 mice [2]: decreased

B1: RKIP: raf kinase inhibitor protein, a dual-specific GRK2 and Raf kinase inhibitor (protein, UniProt P30086 2-187, looked up)
Phosphatidylethanolamine-bindi …: PVDLSKWSGPLSLQEVDEQPQHPLHVTYAGAAVDELGKVLTPTQVKNRPTSISWDGLDSGKLYTLVLTDPDAPSRKDPKYREWHHFLVVNMKGNDISSGTVLSDYVGSGPPKGTGLHRYVWLVYEQDRPLKCDEPILSNRSGDHRGKFKVASFRKKYELRAPVAGTCYQAEWDDYVPKLYEQLSGK
Inhibition of the in vitro phosphorylation of SRSF1 by GRK2 ([1]; result in words): does not inhibit; also recorded: did not inhibit
